Measurements from patent US20160318866A1, “SUBSTITUTED BIPIPERIDINYL DERIVATIVES” (Bayer Pharma Aktiengesellschaft, priority 2013, published 2016).
pIC50: −log10 of the molar value. Where a name gives a salt, the structure may show the parent alone.

Target: T1, human α2C receptor (Homo sapiens, UniProt P18825)
T1 construct: expressed in transfected cells; host or cells: CHO cells, also recombinantly expressing chimeric G protein Gαqi3 and mitochondrial obelin (mtOb)
T1 sequence (P18825 1-462): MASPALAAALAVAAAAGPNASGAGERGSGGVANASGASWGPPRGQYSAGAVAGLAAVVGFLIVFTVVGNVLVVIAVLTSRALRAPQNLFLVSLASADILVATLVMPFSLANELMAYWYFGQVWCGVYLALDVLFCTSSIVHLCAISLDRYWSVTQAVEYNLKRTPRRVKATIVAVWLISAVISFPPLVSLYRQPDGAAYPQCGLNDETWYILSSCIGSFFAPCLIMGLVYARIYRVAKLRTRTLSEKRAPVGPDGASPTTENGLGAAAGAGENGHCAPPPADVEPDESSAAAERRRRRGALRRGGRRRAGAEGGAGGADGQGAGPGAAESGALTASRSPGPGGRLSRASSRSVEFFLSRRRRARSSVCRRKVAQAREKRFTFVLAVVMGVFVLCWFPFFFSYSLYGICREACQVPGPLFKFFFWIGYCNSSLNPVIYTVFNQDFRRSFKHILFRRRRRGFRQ
Test: Antagonism against the adrenoreceptor α2C (luminescence, recombinant CHO cell line)
Type: cell-based
Conditions: antagonism against adrenoreceptor α2C; noradrenaline 20 nM; tested up to 10 μM; read-out: IC50
Procedure: Antagonism against the adrenoreceptor α1A was tested using a recombinant human α1A receptor CHO cell line which additionally also recombinantly expresses mtAeq (mitochondrial aequorin). Antagonism against the adrenoreceptor α2A was tested using a recombinant human α2A-Gα16 receptor fusion protein CHO cell line (PerkinElmer Life Sciences) which additionally also recombinantly expresses mtAeq. Antagonism against the adrenoreceptor α2B was tested using a recombinant human α2B receptor CHO cell line (PerkinElmer Life Sciences) which additionally also recombinantly expresses mtAeq. Antagonism against the adrenoreceptor α2C was tested using a recombinant human α2C receptor CHO cell line which additionally also recombinantly expresses a chimaric G protein (Gαqi3) and mtOb (mitochondrial obelin).
The cells were cultivated at 37° C. and 5% CO2 in Dulbecco's modified Eagle's Medium/NUT mix F12 with L-glutamine which additionally contains 10% (v/v) inactivated foetal calf serum, 1 mM sodium pyruvate, 0.9 mM sodium bicarbonate, 50 U/ml penicillin, 50 μg/ml streptomycin, 2.5 μg/ml amphotericin B and 1 mg/ml Geneticin. The cells were passaged with enzyme-free Hank's-based cell dissociation buffer. All cell culture reagents used are from Invitrogen (Carlsbad, USA).
Luminescence measurements were carried out on white 384-well microtitre plates. 2000 cells/well were plated in a volume of 25 μl and cultivated for one day at 30° C. and 5% CO2 in cell culture medium with coelenterazine (α2A and α2B: 5 μg/ml; α1a/c and α2C: 2.5 μg/ml). Serial dilutions of the test substances (10 μl) were added to the cells. After 5 minutes, noradrenalinee was added to the cells (35 μl; final concentrations: 20 nM (α1a/c and α2C) or 200 nM (α2A and α2B)), and the emitted light was measured for 50 seconds using a CCD (charge-coupled device) camera (Hamamatsu Corporation, Shizuoka, Japan) in a light-tight box. The test substances were tested up to a maximum concentration of 10 μM. The IC50 values were calculated from the appropriate dose-response curves.

Structure (SMILES)	pIC50
CC1CCCN(C2CCN(C(=O)c3ccc(CC4(C)COC4)cc3)CC2)C1 (stereo not drawn) [Example 23, (3-Methyl-1,4′-bipiperidin-1′-yl){4-[(3-methyloxetan-3-yl)methyl]phenyl}methanone]	6.87
Cc1n[nH]c(C2CCCN(C3CCN(C(=O)c4ccc(C(C)(C)C)cc4)CC3)C2)n1 (stereo not drawn) [Example 21, 1-[1-(4-tert-Butylbenzoyl)piperidin-4-yl]-3-(3-methyl-1H-1,2,4-triazol-5-yl)piperidine trifluoroacetic acid salt]	7.31
CC1CCCN(C2CCN(C(=O)c3ccc(C(=O)NCc4cccc(OC(F)(F)F)c4)cc3)CC2)C1 (stereo not drawn) [Example 70, 4-[(3-Methyl-1,4′-bipiperidin-1′-yl)carbonyl]-N-[3-(trifluoromethoxy)benzyl]benzamide trifluoroacetic acid salt]	6.72
CC1CCCN(C2CCN(C(=O)c3ccc(C(=O)N(C)CC4(C)COC4)cc3)CC2)C1 (stereo not drawn) [Example 52, N-methyl-4-[(3-methyl-1,4′-bipiperidin-1′-yl)carbonyl]-N-[(3-methyloxetan-3-yl)methyl]benzamide]	6.74
CCOC(=O)C1CCCN(C2CCN(C(=O)c3ccc(C(C)(C)C(=O)OCC)cc3)CC2)C1 (stereo not drawn) [Example 29, 3-(Ethoxycarbonyl)-1-{1-[4-(1-ethoxy-2-methyl-1-oxopropan-2-yl)benzoyl]piperidin-4-yl}piperidine trifluoroacetic acid salt]	7.54
CC1CCCN(C2CCN(C(=O)c3ccc(C(=O)NC(CO)Cc4ccc(Cl)cc4)cc3)CC2)C1 (stereo not drawn) [Example 53, N-[1-(4-chlorophenyl)-3-hydroxypropan-2-yl]-4-[(3-methyl-1,4′-bipiperidin-1′-yl)carbonyl]benzamide]	6.70
C[C@@H]1CCCN(C2CCN(C(=O)c3ccc(C(=O)NC(C)(C)C)cc3Cl)CC2)C1 [Example 101, N-tert-Butyl-3-chloro-4-{[(3R)-3-methyl-1,4′-bipiperidin-1′-yl]carbonyl}benzamide formic acid salt]	7.68
C[C@@H]1CCCN(C2CCN(C(=O)c3ccc(C(=O)N(C)Cc4c(F)cccc4F)cc3)CC2)C1 [Example 84, (R)—N-(2,6-Difluorobenzyl)-N-methyl-4-{[(3R)-3-methyl-1,4′-bipiperidin-1′-yl]carbonyl}benzamide trifluoroacetic acid salt]	8.52
CC(NC(=O)c1ccc(C(=O)N2CCC(N3CCC[C@@H](C)C3)CC2)cc1)c1ccncc1 (stereo partly drawn) [Example 93, 4-{[(3R)-3-Methyl-1,4′-bipiperidin-1′-yl]carbonyl}-N-[1-(pyridin-4-yl)ethyl]benzamide]	6.87
COCC1CCCN(C2CCN(C(=O)c3ccc(C(C)(C)C)cc3)CC2)C1 (stereo not drawn) [Example 19, (4-tert-Butylphenyl)[3-(methoxymethyl)-1,4′-bipiperidin-1′-yl]methanone]	8.10
CC1CCCN(C2CCN(C(=O)c3ccc(C4(CNC=O)CCC4)cc3)CC2)C1 (stereo not drawn) [Example 66, N-[(1-{4-[(3-Methyl-1,4′-bipiperidin-1′-yl)carbonyl]phenyl}cyclobutyl)methyl]formamide hydrochloride]	7.82
CCOC(=O)C1CCCN(C2CCN(C(=O)c3ccc(C(C)(C)OC)cc3)CC2)C1 (stereo not drawn) [Example 42, Ethyl 1′-[4-(2-methoxypropan-2-yl)benzoyl]-1,4′-bipiperidine-3-carboxylate]	7.59
CCOC(=O)Cc1ccc(C(=O)N2CCC(N3CCCC(C)C3)CC2)cc1 (stereo not drawn) [Example 33, 1-{1-[4-(2-Ethoxy-2-oxoethyl)benzoyl]piperidin-4-yl}-3-methylpiperidine trifluoroacetic acid salt]	6.30
Cc1cc(CN(C)C(=O)c2ccc(C(=O)N3CCC(N4CCCC(C)C4)CC3)cc2)on1 (stereo not drawn) [Example 50, N-methyl-4-[(3-methyl-1,4′-bipiperidin-1′-yl)carbonyl]-N-[(3-methyl-1,2-oxazol-5-yl)methyl]benzamide]	6.77
CC1CCCN(C2CCN(C(=O)c3ccc(C4(CO)CC4)cc3)CC2)C1 (stereo not drawn) [Example 31, 1-(1-{4-[1-(Hydroxymethyl)cyclopropyl]benzoyl}piperidin-4-yl)-3-methylpiperidine trifluoroacetic acid salt]	6.39
CC1CCCN(C2CCN(C(=O)c3ccc(C(C)(C)C)cc3)CC2)C1 (stereo not drawn) [Example 5, (4-tert-Butylphenyl)(3-methyl-1,4′-bipiperidin-1′-yl)methanone]	7.00
CCOC(=O)C1CCCN(C2CCN(C(=O)c3ccc(CC4(C)COC4)cc3)CC2)C1 (stereo not drawn) [Example 24, Ethyl 1′-{4-[(3-methyloxetan-3-yl)methyl]benzoyl}-1,4′-bipiperidine-3-carboxylate]	7.77
CCOC(=O)C1CCCN(C2CCN(C(=O)c3ccc(C(C)(C)O)cc3)CC2)C1 (stereo not drawn) [Example 9, Ethyl 1′-[4-(2-hydroxypropan-2-yl)benzoyl]-1,4′-bipiperidine-3-carboxylate]	7.36
CCOC(=O)C1(c2ccc(C(=O)N3CCC(N4CCCC(C)C4)CC3)cc2)CC1 (stereo not drawn) [Example 30, 1-(1-{4-[1-(Ethoxycarbonyl)cyclopropyl]benzoyl}piperidin-4-yl)-3-methylpiperidine trifluoroacetic acid salt]	6.78
CC(C)(O)c1ccc(C(=O)N2CCC(N3CCCC(c4nnc(C5CC5)[nH]4)C3)CC2)cc1 (stereo not drawn) [Example 60, [3-(5-Cyclopropyl-4H-1,2,4-triazol-3-yl)-1,4′-bipiperidin-1′-yl][4-(2-hydroxypropan-2-yl)phenyl]methanone]	7.35
CC(C)CN(C)C(=O)c1ccc(C(=O)N2CCC(N3CCCC(C)C3)CC2)cc1 (stereo not drawn) [Example 48, N-methyl-4-[(3-methyl-1,4′-bipiperidin-1′-yl)carbonyl]-N-(2-methylpropyl) benzamide]	6.70
CC(C)(O)c1ccc(C(=O)N2CCC(N3CCCC(c4ncn[nH]4)C3)CC2)cc1 (stereo not drawn) [Example 64]	6.41
CC1CCCN(C2CCN(C(=O)c3ccc(C(C)(C)O)cc3)CC2)C1 (stereo not drawn) [Example 7]	6.27
C[C@@H]1CCCN(C2CCN(C(=O)c3ccc(C(=O)NCc4ncc(Cl)cc4C(F)(F)F)cc3)CC2)C1 [Example 91, N-{[5-Chloro-3-(trifluoromethyl)pyridin-2-yl]methyl}-4-{[(3R)-3-methyl-1,4′-bipiperidin-1′-yl]carbonyl}benzamide]	7.89
CCN(CCOC)C(=O)c1ccc(C(=O)N2CCC(N3CCCC(C)C3)CC2)cc1 (stereo not drawn) [Example 37, 1-(1-{4-[Ethyl-(2-methoxyethyl)carbamoyl]benzoyl}piperidin-4-yl)-3-methylpiperidine trifluoroacetic acid salt]	6.39
Cc1noc(C)c1NC(=O)c1ccc(C(=O)N2CCC(N3CCCC(C)C3)CC2)cc1 (stereo not drawn) [Example 56, N-(3,5-dimethyl-1,2-oxazol-4-yl)-4-[(3-methyl-1,4′-bipiperidin-1′-yl)carbonyl]benzamide]	7.46
CC(C)(O)c1ccc(C(=O)N2CCC(N3CCCC(COC4CC4)C3)CC2)cc1 (stereo not drawn) [Example 118, {3-[(Cyclopropyloxy)methyl]-1,4′-bipiperidin-1′-yl}[4-(2-hydroxypropan-2-yl)phenyl]methanone]	8.10
C[C@@H]1CN(C2CCN(C(=O)c3ccc(C(C)(C)C)cc3)CC2)CC[C@@H]1C (relative stereo) [Example 20, cis-1-[1-(4-tert-Butylbenzoyl)piperidin-4-yl]-3,4-dimethylpiperidine trifluoroacetic acid salt]	6.93
CC(C)(O)c1ccc(C(=O)N2CCC(N3CCCC(OCC4CC4)C3)CC2)cc1 (single isomer, unassigned; enantiomer 1) [Example 129, [3-(Cyclopropylmethoxy)-1,4′-bipiperidin-1′-yl][4-(2-hydroxypropan-2-yl)phenyl]methanone hydrochloride (enantiomer 1)]	7.80
CC(C)(C)OCC1CCCN(C2CCN(C(=O)c3ccc(C(C)(C)O)cc3)CC2)C1 (stereo not drawn) [Example 106, [3-(tert-Butoxymethyl)-1,4′-bipiperidin-1′-yl][4-(2-hydroxypropan-2-yl)phenyl]methanone]	7.46
